Entries after “also recorded” stand apart in the source; their conditions may differ.
Tests used:
Format in all cases: in vivo
aged mice [1] = test: Cognition of aged mice under STX64 treatment (FIG. 16-19, headline)
aged mice [2] = test: Passive avoidance test in aged mice (STM and LTM)
Protocol: (§1) The first, object recognition, after training with identical objects, tests the ability to identify different objects exposed together with a familiar one. When this happens, the object discrimination index is positive and higher than 0.1. […] For this purpose, during training, the entry latency to the preferred site is established and the aversive stimulus is administered.
During short- and long-term memory tests (STM and LTM) if the mouse associated the preferred place to the aversive stimulus, the input latency increases with respect to training.

APP-PS1 mice = test: Passive avoidance test in APP-PS1 mice; settings: APP-PS1 mice older than 15-month-old; 3-4 weeks oral
From the text: As STX64 ameliorated neurodegeneration in C. elegans models, we tested the effect of this drug on cognitive alterations provoked by intrahippocampal βA oligomers infusion, an acute AD mammalian model (FIG. 3i). […] To evaluate the effect of STX64 oral treatment on amyloid pathology in a chronic AD mice model, we assessed the effect of 3-4 weeks of STX64 oral treatment on amyloid deposition in the neocortex (the cerebral cortex and the hippocampus) of >15-month-old APP-PS1 mice (FIG. 4k). […] We wondered if this histological improvement correlated with amelioration of cognitive behavioural deficit. For that, we compared cognition capacities in APP-PS1 mice older than 15-month-old treated with vehicle or STX64 for 3-4 weeks.
as §1

NS(=O)(=O)Oc1ccc2c3c(c(=O)oc2c1)CCCCC3 [STX64]
cognition (aged mice [1]; 1-month treatment in 18 months old mice, 19 months when assayed, FIG. 18): improves cognition
cognition (aged mice [1]; 3-month treatment in 18 months old mice, 21 months when assayed, FIG. 19): improves cognition
cognition (aged mice [1]; 3 months treatment in 15 months old mice, FIG. 16): improves cognition
cognition (aged mice [1]; 6 months treatment in 15 months old mice, 21 months when assayed, FIG. 17): improves cognition
short term and long-term memory in passive avoidance test (aged mice [2]; 1-month treatment in 18 months old mice, FIG. 18B): significant improvement
learning (STM) and memory (LTM), passive avoidance test (aged mice [2]; aged mice, vs vehicle-treated, FIG. 21, listed as STX): showed significantly both learning (STM) and ability to store information (memory); also recorded: significant improvement in both learning (STM) and ability to store information (memory)
cognitive deficiencies, passive avoidance test (APP-PS1 mice): completely reverted cognitive deficiencies

Reference: patent publication US20240108637A1, “EPITE[…] AND/OR A STEROID SULFATASE INHIBITOR FOR USE IN TREATING OR IMPROVING AGE RELATED COGNITIVE IMPAIRMENT” (U[…] DE OLAVIDE, priority 2020, published 2024)
